Laboratory results reported in US20140171415A1, “FUNNY CURRENT (IF) INHIBITORS FOR USE IN A METHOD OF TREATING AND PREVENTING HEART DISEASE IN CANINE” (Boehringer Ingelheim Vetmedica GmbH, priority 2012, published 2014).

What was measured:
healthy Beagle dogs = assay: Radiotelemetric pharmacodynamic study, repeated once and twice daily oral administration; assay type: in vivo, dog; details: for minimum of the first derivative of the left ventricular pressure against time (LVdP/dtmin) / maximum of the first derivative of the left ventricular pressure against time (LVdP/dtmax) / decrease of heart rate: healthy Beagle dogs; for minimum of the first derivative of the left ventricular pressure against time (LVdP/dtmin): from −2700 mmHg/s; for maximum of the first derivative of the left ventricular pressure against time (LVdP/dtmax): increased from 2700 mmHg/s; for decrease of heart rate: 0.3 mg/kg bodyweight oral, 2 mg/ml oral suspension
Experimental: A Radiotelemetric Study to Evaluate the Pharmacodynamic Effects of Cilobradine HCl 2 Mg/Ml Oral Suspension after Repeated Once and Twice Daily Oral Administration to Healthy Beagle Dogs
Cilobradine HCl 2 mg/ml oral suspension was given once or twice daily at doses of 0.3 mg/kg bodyweight to conscious, healthy Beagle dogs chronically implanted with a telemetry system. Heart rate, systolic blood pressure, diastolic blood pressure, aortic pressure, left ventricular pressure, electrocardiogram (ECG), and body temperature were recorded. Before each treatment sequence all dogs underwent a 24 hour pre-dosing measurement which served as a baseline (control) measurement. After dosing the dogs were left undisturbed for the duration of the study, which lasted 24 hours, with the exception of the second dosing 10-12 hours after the first treatment.

[1] = Lipophilicity profile of the active substance; assay type: physicochemical; details: neutral pH versus acidic pH
Description: Usually, EC/HPMC films show a sustained release behavior that is independent of pH. […] This, together with the coating applied, may have led to a slower release.

Ih channel = details: literature: Neuroscience 1994 (zatebradine), British Journal of Pharmacology 1998 (cilobradine); cited from earlier work
conscious dogs = assay: Heart rate and arterial blood pressure by telemetry in conscious dogs; assay type: in vivo, dog
Experimental: Heart rate (HR) and arterial blood pressure (BP) were measured in conscious dogs using telemetry methodology. They received daily oral doses of 0.3 mg/kg over 5 days. HR measured prior drug administration was reduced from 64.0±6.81 beats per minute (bpm) to 50.5±5.54 bpm on day 5. maximal effect on HR were seen between 1.5 and 3.5 hours post-dosing and HR reached values between 45 and 53 bpm. No effect on arterial BP was seen.

anesthetized dogs = assay: Cardiovascular and electrocardiographic effects in anesthetized dogs; assay type: in vivo, dog
Experimental: Cardiovascular and Electrocardiographic Effects of Cilobradine (DKAH 3 CL) in Dogs:
The dose of 0.05 mg/kg reduced spontaneous HR by 23% whereas 0.1 mg/kg i.v. reduced HR by 42%. Systolic and diastolic pressure was not affected. The effective refractory times of the sinus and atrioventricular (AV) node increased with 0.05 mg/kg by 31% and 30% respectively.

[2] = system: conscious, chronically instrumented dogs; assay: Hemodynamic action in conscious, chronically instrumented dogs; assay type: in vivo, dog; details: 2.5 mg/kg orally
Description: Hyodynamic Action in Conscious, Chronically Instrumented Dogs:
HR dropped by up to 40% while blood pressure was not affected. Left ventricular end-diastolic pressure rose. This effect on preload may be explained by prolongation of the filling period due to prolongation of diastolic duration. Renal blood flow was maintained and coronary blood flow decreased by up to 40% most likely as a consequence of a drop in myocardial oxygen demand.

[3] = 0.3 mg/kg bodyweight once daily and twice daily in comparison to control
[4] = 0.3 mg/kg bodyweight once daily
[5] = 0.3 mg/kg bodyweight twice daily

## COc1ccc(CCN2CCC[C@H](CN3CCc4cc(OC)c(OC)cc4CC3=O)C2)cc1OC.Cl [cilobradine HCl, (+)-3-[(N-(2-(3,4-dimethoxy-phenyl)ethyl)-piperidin-3-(S)-yl)-methyl]-(7,8-dimethoxy-1,3,4,5-tetrahydro-2H-3-benzazepin-2-on hydrochloride)]
Healthy Beagle dogs; [3]
  inotropic effect (FIG. 1): positive inotropic effect
  lusitropic effect (FIG. 2): positive lusitropic effect
Healthy Beagle dogs; [4]
  minimum of the first derivative of the left ventricular pressure against time (LVdP/dtmin): −3000 mmHg/s
  maximum of the first derivative of the left ventricular pressure against time (LVdP/dtmax): 3000 mmHg/s
Healthy Beagle dogs; repeated once daily
  decrease of heart rate: approximately 25%
Healthy Beagle dogs; repeated twice daily
  decrease of heart rate: ~30%
Healthy Beagle dogs; [5]
  minimum of the first derivative of the left ventricular pressure against time (LVdP/dtmin): −3550 mmHg/s
  maximum of the first derivative of the left ventricular pressure against time (LVdP/dtmax): 3550 mmHg/s
[1]
  lipophilicity profile: slightly more lipophilic at neutral pH values

## COc1ccc(CCN(C)CCCN2CCc3cc(OC)c(OC)cc3CC2=O)cc1OC [zatebradine, reference compound]
Ih channel
  effect on the Ih channel: can also be blocked

## COc1ccc(CCN2CCC[C@H](CN3CCc4cc(OC)c(OC)cc4CC3=O)C2)cc1OC [Cilobradine, (+)-3-[(N-(2-(3,4-dimethoxy-phenyl)ethyl)-piperidin-3-(S)-yl)-methyl]-(7,8-dimethoxy-1,3,4,5-tetrahydro-2H-3-benzazepin-2-on)]
Conscious dogs; daily oral 0.3 mg/kg over 5 days
  effect on arterial BP: No effect
Conscious dogs; daily oral doses of 0.3 mg/kg over 5 days, reduced from 64.0±6.81 bpm
  HR measured prior drug administration on day 5: 50.5±5.54 bpm
Anesthetized dogs; 0.05 mg/kg i.v.
  increase of effective refractory time of the atrioventricular (AV) node: 30%
  increase of effective refractory time of the sinus node: 31%
  reduction of spontaneous HR: 23%
Anesthetized dogs; 0.1 mg/kg i.v.
  reduction of spontaneous HR: 42%
Anesthetized dogs; 0.05 or 0.1 mg/kg i.v.
  systolic and diastolic pressure: not affected
[2]
  blood pressure: not affected
  decrease of coronary blood flow: up to 40%
  drop of HR: up to 40%
  left ventricular end-diastolic pressure: rose
  renal blood flow: maintained
Ih channel
  effect on the Ih channel: can also be blocked
